The target of assay [1] is T1, Bgl.bli1 (Bacillus licheniformis, UniProt Q65D83).
T1 construct: gene BL01920; cloning primers encode start MARQTW and end TEEFRYK
T1 sequence (Q65D83 1-478): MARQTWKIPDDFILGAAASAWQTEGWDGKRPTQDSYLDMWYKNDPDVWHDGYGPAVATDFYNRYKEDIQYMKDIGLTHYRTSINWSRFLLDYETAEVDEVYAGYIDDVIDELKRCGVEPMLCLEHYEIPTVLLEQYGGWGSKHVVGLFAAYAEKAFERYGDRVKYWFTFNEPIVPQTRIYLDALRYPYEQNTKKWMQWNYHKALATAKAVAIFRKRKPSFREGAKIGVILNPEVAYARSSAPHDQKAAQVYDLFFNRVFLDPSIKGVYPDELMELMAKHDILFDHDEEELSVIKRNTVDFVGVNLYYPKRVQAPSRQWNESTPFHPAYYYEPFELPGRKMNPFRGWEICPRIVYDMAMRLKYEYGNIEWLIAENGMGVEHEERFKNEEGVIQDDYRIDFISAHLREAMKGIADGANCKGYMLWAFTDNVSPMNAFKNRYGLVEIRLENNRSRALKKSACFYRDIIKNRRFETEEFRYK
Put plainly: pNPG hydrolysis with added glucose. In kind it is biochemical. The note with it: substrate pNPG, called competitive by the authors. The source says:
pNPG hydrolysis with added glucose on Bgl.bli1

In assay [2] the target is T1, Bgl.bli1. Put plainly: pNPG hydrolysis. The note with it: standard assay, no glucose added. In kind it is biochemical.

Consider `OC[C@H]1OC(O)[C@H](O)[C@@H](O)[C@@H]1O` (some centres unmarked) [glucose], for which the “Relative activity (%) at 10% (w/w) glucose” value at Bgl.bli1 [1] is given as 49.26%.

`O=[N+]([O-])c1ccc(O[C@@H]2O[C@H](CO)[C@@H](O)[C@H](O)[C@H]2O)cc1` [p-nitrophenyl-β-D-glucopyranoside]: the pNPG hydrolysis entry at Bgl.bli1 [2] is recorded as “Bgl.bli1 activity was determined by measuring the hydrolysis of p-nitrophenyl-β-D-glucopyranoside (pNPG)”.

The values above are taken from article PMC5673865, “Characterization of a beta-glucosidase from Bacillus licheniformis and its effect on bioflocculant degradation” (AMB Express, 2017).
